Consider 15 compounds from patent publication US10052320B2, “Substituted quinoxalines as FGFR kinase inhibitors” (ASTEX THERAPEUTICS LIMITED, priority 2011, dated 2018).

Where only a bound is given, the exact number is not on record here.

The first test concerns Ba/F3-Flt3-transfected cells in the presence of 10 ng/ml murine IL3. Briefly: Ba/F3-Flt3 (plus IL3) cellular proliferation counterscreen, Alamar Blue. Particulars: Mus musculus; plus 10 ng/ml murine IL3; read-out: BAF3-FLT3 (PLUS IL3) 96 well pIC50 (converted). The format is cell-based.
For `COc1cc(OC)cc(N(CC2CC2)c2ccc3ncc(C(=O)Nc4cncn4C)nc3c2)c1` [Compound 27], the IC50 is more than 10 µM.

As to `COc1cc(OC)cc(N(CC2CC2)c2ccc3ncc(NC(=O)c4ccc(F)cc4)nc3c2)c1` [Compound 28], the IC50 is more than 10 µM.

In the case of `COc1cc(OC)cc(N(CC2CC2)c2ccc3ncc(-c4c[nH]cn4)nc3c2)c1` [Compound 39], the IC50 is more than 10 µM.

In the case of `COc1cc(OC)cc(N(CC2CC2)c2ccc3ncc(N4CCN(CCO)CC4)nc3c2)c1` [Compound 49], the IC50 is more than 10 µM.

Consider `COc1cc(OC)cc(N(CC2CC2)c2ccc3ncc(-c4cccc(N5CCOCC5)c4)nc3c2)c1` [Compound 92], for which the IC50 was more than 10 µM.

For `COc1cc(OC)cc(N(CC2CC2)c2ccc3ncc(C(=O)N4CCC4)nc3c2)c1` [Compound 93], the IC50 is more than 10 µM.

On to `COc1cc(OC)cc(N(CC2CC2)c2ccc3ncc(-n4cccn4)nc3c2)c1` [Compound 95], for which the IC50 is more than 10 µM.

The same test, now with this note: Mus musculus; plus IL3, 96 well; read-out: BAF3-FLT3 (PLUS IL3) 96 well pIC50 (converted).
As to `COc1cc(OC)cc(N(CC2CC2)c2ccc3ncc(C#Cc4cncn4C)nc3c2)c1` [Compound 22], the IC50 was more than 10 µM.

With `COc1cc(OC)cc(N(CC2CC2)c2ccc3ncc(-c4ccnc(N5CCN(C)CC5)c4)nc3c2)c1` [Compound 37], the IC50 was approximately 4.68 µM.

Regarding `COc1cc(OC)cc(N(CC2CC2)c2ccc3ncc(N4CCOCC4)nc3c2)c1` [Compound 63], the IC50 is more than 10 µM.

As to `COc1cc(OC)cc(N(CC2CC2)c2ccc3ncc(N4CCN(C)CC4)nc3c2)c1` [Compound 64], the IC50 is more than 10 µM.

As for `COc1cc(OC)cc(N(CC2CC2)c2ccc3ncc(-c4nnc(C)o4)nc3c2)c1` [Compound 85], the IC50 is more than 10 µM.

As to `COc1cc(OC)cc(N(CC2CC2)c2ccc3ncc(-c4ccc5[nH]ccc5c4)nc3c2)c1` [Compound 86], the IC50 is more than 10 µM.

Consider `COc1cc(OC)cc(N(CC2CC2)c2ccc3ncc(-c4cnc5[nH]ccc5c4)nc3c2)c1` [Compound 88], for which the IC50 was more than 10 µM.

Turning to `COc1cc(OC)cc(N(CC2CC2)c2ccc3ncc(-c4ccnc(N5CCOCC5)c4)nc3c2)c1` [Compound 90], the IC50 was more than 10 µM.
